In BindingDB's records for doi:10.1021/acs.jmedchem.6b01851 (Amgen, 2017):

Each molecule was assayed against Sodium channel protein type 5 subunit alpha (Homo sapiens, UniProt Q14524) (assay: Inhibition of human Nav1.5 expressed in HEK293 cells assessed as reduction in peak inward current by ionworks quattro electrophysiology assay).
Sequence of Sodium channel protein type 5 subunit alpha (Q14524 whole entry): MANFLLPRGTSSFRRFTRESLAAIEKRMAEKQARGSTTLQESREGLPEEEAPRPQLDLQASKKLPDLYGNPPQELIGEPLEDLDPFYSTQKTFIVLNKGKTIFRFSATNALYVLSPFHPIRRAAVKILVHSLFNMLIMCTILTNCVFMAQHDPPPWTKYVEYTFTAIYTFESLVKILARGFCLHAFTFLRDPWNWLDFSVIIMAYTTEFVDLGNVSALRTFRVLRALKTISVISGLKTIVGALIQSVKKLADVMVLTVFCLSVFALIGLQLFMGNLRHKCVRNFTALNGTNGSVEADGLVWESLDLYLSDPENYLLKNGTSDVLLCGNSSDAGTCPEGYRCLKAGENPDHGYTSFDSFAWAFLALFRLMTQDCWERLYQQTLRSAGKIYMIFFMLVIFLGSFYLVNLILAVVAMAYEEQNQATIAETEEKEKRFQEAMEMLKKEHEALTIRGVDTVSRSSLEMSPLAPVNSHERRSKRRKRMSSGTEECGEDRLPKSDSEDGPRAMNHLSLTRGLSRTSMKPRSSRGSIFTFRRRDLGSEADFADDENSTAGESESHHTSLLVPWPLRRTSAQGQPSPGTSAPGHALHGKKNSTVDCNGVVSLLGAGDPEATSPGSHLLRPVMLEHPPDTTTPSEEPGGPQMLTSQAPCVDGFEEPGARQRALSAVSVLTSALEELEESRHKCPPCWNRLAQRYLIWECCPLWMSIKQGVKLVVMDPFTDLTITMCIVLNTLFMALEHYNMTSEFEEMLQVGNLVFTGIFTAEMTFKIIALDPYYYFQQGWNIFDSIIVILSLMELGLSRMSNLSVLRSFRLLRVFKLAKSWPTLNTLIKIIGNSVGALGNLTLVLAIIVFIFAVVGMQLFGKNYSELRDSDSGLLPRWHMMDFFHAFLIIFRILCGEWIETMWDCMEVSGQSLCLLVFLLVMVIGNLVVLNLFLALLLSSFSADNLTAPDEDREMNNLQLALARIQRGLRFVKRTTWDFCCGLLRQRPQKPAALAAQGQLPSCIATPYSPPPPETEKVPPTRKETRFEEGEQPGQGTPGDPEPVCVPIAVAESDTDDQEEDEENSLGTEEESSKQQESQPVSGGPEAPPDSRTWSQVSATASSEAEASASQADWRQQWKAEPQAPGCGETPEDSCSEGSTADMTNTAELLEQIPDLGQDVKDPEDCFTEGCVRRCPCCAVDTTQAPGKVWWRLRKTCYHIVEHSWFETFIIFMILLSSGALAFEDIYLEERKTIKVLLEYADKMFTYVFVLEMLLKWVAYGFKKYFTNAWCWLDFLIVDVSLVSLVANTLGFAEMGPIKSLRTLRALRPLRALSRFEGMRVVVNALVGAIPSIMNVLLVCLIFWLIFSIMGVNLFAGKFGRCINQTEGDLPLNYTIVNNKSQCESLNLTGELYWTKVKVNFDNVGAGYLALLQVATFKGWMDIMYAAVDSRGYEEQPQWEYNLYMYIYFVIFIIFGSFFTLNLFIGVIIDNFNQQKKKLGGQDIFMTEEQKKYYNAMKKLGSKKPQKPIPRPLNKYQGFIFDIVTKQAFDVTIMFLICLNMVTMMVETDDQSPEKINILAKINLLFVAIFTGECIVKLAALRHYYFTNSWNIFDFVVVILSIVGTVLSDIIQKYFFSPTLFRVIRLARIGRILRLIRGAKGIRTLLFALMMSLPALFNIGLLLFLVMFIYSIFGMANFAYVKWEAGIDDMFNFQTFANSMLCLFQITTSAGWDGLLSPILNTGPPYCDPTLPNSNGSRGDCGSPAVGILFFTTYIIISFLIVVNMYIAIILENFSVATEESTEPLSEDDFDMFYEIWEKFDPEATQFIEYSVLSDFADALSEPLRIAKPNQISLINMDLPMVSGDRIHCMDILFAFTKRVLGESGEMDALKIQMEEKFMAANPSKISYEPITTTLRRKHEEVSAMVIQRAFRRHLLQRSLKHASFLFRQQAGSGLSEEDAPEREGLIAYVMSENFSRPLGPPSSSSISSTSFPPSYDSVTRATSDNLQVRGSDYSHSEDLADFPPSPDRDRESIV

Q: How did the IC50 turn out when `COc1cc(-c2cccc(F)c2)c(Cl)cc1-c1ncc(O)c2cc(S(=O)(=O)Nc3ccon3)ccc12` [1-(2-chloro-3'-fluoro-5-methoxy-4-biphenylyl)-4-hydroxy-N-3-isoxazolyl-6-isoquinolinesulfonamide] was run?
A: Its IC50 is over 10 µM.

Q: Which IC50 does the source give for `COc1cc(-c2cccc(F)c2)c(Cl)cc1-c1nccc2cc(S(=O)(=O)Nc3ncon3)ccc12` [1-(2-chloro-3'-fluoro-5-methoxy-4-biphenylyl)-N-1,2,4-oxadiazol-3-yl-6-isoquinolinesulfonamide] here?
A: The IC50 was over 10 µM.

Q: With `COc1cc(-c2cccc(F)c2)c(Cl)cc1-c1nn(C)c(=O)c2cc(S(=O)(=O)Nc3ccon3)ccc12` [1-(2-chloro-3'-fluoro-5-methoxy-4-biphenylyl)-N-3-isoxazolyl-3-methyl-4-oxo-3,4-dihydro-6-phthalazinesulfonamide] as the molecule, how does the IC50 read?
A: The IC50 was over 10 µM.

Q: How did the IC50 turn out when `COc1cc(-c2cccc(F)c2)c(Cl)cc1-c1nccc2cc(S(=O)(=O)Nc3cccnn3)ccc12` [1-(2-chloro-3'-fluoro-5-methoxy-4-biphenylyl)-N-3-pyridazinyl-6-isoquinolinesulfonamide] was run?
A: The IC50 was over 10 µM.

Q: Which IC50 does the source give for `COc1cc(-c2cccc(Cl)c2)c(F)cc1-c1nccc2cc(S(=O)(=O)Nc3ccon3)ccc12` [1-(3'-chloro-2-fluoro-5-methoxy-4-biphenylyl)-N-3-isoxazolyl-6-isoquinolinesulfonamide] here?
A: Its IC50 is over 10 µM.

Q: For `COc1cc(-c2cccc(F)c2)c(Cl)cc1-c1ncnc2cc(S(=O)(=O)Nc3ccon3)ccc12` [4-(2-chloro-3'-fluoro-5-methoxy-4-biphenylyl)-N-3-isoxazolyl-7-quinazolinesulfonamide], which IC50 is on record?
A: Its IC50 is over 10 µM.
